From ChEMBL document CHEMBL4400545 (Bioorg Med Chem, 2019)

What follows are compounds tested against Sodium- and chloride-dependent GABA transporter 1 (Mus musculus) (UniProt P31648) (assay: Inhibition of mouse GAT-1 assessed as percentage of remaining specific binding of NO711 at 1 uM after 4 hrs by LC-ESI-MS/ms analysis relative to control).

Row | Activity [%] | SMILES
1 | 80 | O=Cc1cc(F)ccc1-c1ccccc1
2 | 80 | O=Cc1cc(F)ccc1-c1ccccc1F
3 | 93 | O=Cc1ccccc1-c1ccc(Cl)cc1Cl
4 | 93 | O=Cc1ccccc1-c1ccc(F)cc1Cl
5 | 93 | O=Cc1ccccc1-c1ccccc1Cl
6 | 93 | O=Cc1ccccc1-c1ccccc1F
7 | 61 | COc1ccc(/C=N/OCCN2CCCC(C(=O)O)C2)c2ccccc12 (racemic)
8 | 74 | COc1ccc(/C=N/OCCN2CCCC(C(=O)O)C2)cc1 (racemic)
9 | 74 | COc1ccccc1/C=N/OCCN1CCCC(C(=O)O)C1 (racemic)
10 | 60 | Cc1ccc(/C=N/OCCN2CCCC(C(=O)O)C2)c2ccccc12 (racemic)
11 | 22 | Cc1ccccc1-c1ncccc1/C=N/OCCN1CCCC(C(=O)O)C1 (racemic)
12 | 33 | Cc1ccsc1-c1sc(/C=N/OCCN2CCCC(C(=O)O)C2)cc1C (racemic)
13 | 33 | Cc1noc(-c2ccccc2/C=N/OCCN2CCCC(C(=O)O)C2)n1 (racemic)
14 | 45 | O=C(O)C1CCCN(CCO/N=C/C2CC3C=CC2C3)C1 (racemic)
15 | 60 | O=C(O)C1CCCN(CCO/N=C/COCc2ccccc2)C1 (racemic)
16 | 62 | O=C(O)C1CCCN(CCO/N=C/c2c3ccccc3cc3ccccc23)C1 (racemic)
17 | 45 | O=C(O)C1CCCN(CCO/N=C/c2c[nH]c3ncccc23)C1 (racemic)
18 | 41 | O=C(O)C1CCCN(CCO/N=C/c2cc(F)ccc2-c2ccccc2Cl)C1 (racemic)
19 | 19 | O=C(O)C1CCCN(CCO/N=C/c2cc3c(cc2-c2ccc(Cl)cc2Cl)OCO3)C1 (racemic)
20 | 19 | O=C(O)C1CCCN(CCO/N=C/c2cc3c(cc2-c2ccccc2)OCO3)C1 (racemic)
21 | 19 | O=C(O)C1CCCN(CCO/N=C/c2cc3c(cc2-c2ccccc2Cl)OCO3)C1 (racemic)
22 | 19 | O=C(O)C1CCCN(CCO/N=C/c2cc3c(cc2-c2ccccc2F)OCO3)C1 (racemic)
23 | 62 | O=C(O)C1CCCN(CCO/N=C/c2cc3ccccc3c3ccccc23)C1 (racemic)
24 | 71 | O=C(O)C1CCCN(CCO/N=C/c2ccc(Br)cn2)C1 (racemic)

Row | Activity [%] | SMILES
25 | 71 | O=C(O)C1CCCN(CCO/N=C/c2ccc(Br)nc2)C1 (racemic)
26 | 48 | O=C(O)C1CCCN(CCO/N=C/c2ccc(C#Cc3ccccc3)s2)C1 (racemic)
27 | 60 | O=C(O)C1CCCN(CCO/N=C/c2ccc(F)c3ccccc23)C1 (racemic)
28 | 61 | O=C(O)C1CCCN(CCO/N=C/c2ccc(O)c3ccccc23)C1 (racemic)
29 | 74 | O=C(O)C1CCCN(CCO/N=C/c2ccc(O)cc2)C1 (racemic)
30 | 29 | O=C(O)C1CCCN(CCO/N=C/c2ccc(OCc3ccccc3)cc2)C1 (racemic)
31 | 29 | O=C(O)C1CCCN(CCO/N=C/c2ccc(Oc3ccccc3)cc2)C1 (racemic)
32 | 60 | O=C(O)C1CCCN(CCO/N=C/c2ccc([N+](=O)[O-])cc2)C1 (racemic)
33 | 37 | O=C(O)C1CCCN(CCO/N=C/c2ccc3c(c2)Cc2ccccc2-3)C1 (racemic)
34 | 61 | O=C(O)C1CCCN(CCO/N=C/c2ccc3ccccc3c2)C1 (racemic)
35 | 62 | O=C(O)C1CCCN(CCO/N=C/c2ccc3ccccc3n2)C1 (racemic)
36 | 71 | O=C(O)C1CCCN(CCO/N=C/c2cccc(Br)n2)C1 (racemic)
37 | 29 | O=C(O)C1CCCN(CCO/N=C/c2cccc(Oc3ccccc3)c2)C1 (racemic)
38 | 60 | O=C(O)C1CCCN(CCO/N=C/c2cccc([N+](=O)[O-])c2)C1 (racemic)
39 | 32 | O=C(O)C1CCCN(CCO/N=C/c2cccc3c2OCO3)C1 (racemic)
40 | 61 | O=C(O)C1CCCN(CCO/N=C/c2cccc3ccccc23)C1 (racemic)
41 | 74 | O=C(O)C1CCCN(CCO/N=C/c2ccccc2)C1 (racemic)
42 | 39 | O=C(O)C1CCCN(CCO/N=C/c2ccccc2-c2c(F)cccc2F)C1 (racemic)
43 | 71 | O=C(O)C1CCCN(CCO/N=C/c2ccccc2-c2cc(F)ccc2F)C1 (racemic)
44 | 24 | O=C(O)C1CCCN(CCO/N=C/c2ccccc2-c2ccc(Cl)cc2F)C1 (racemic)
45 | 89 | O=C(O)C1CCCN(CCO/N=C/c2ccccc2-c2ccc3ccccc3c2)C1 (racemic)
46 | 39 | O=C(O)C1CCCN(CCO/N=C/c2ccccc2-c2cccc(F)c2F)C1 (racemic)
47 | 45 | O=C(O)C1CCCN(CCO/N=C/c2ccccc2-c2cccc3ccccc23)C1 (racemic)
48 | 47 | O=C(O)C1CCCN(CCO/N=C/c2ccccc2-c2ccccc2)C1 (racemic)

Row | Activity [%] | SMILES
49 | 37 | O=C(O)C1CCCN(CCO/N=C/c2ccccc2-c2cccnc2)C1 (racemic)
50 | 32 | O=C(O)C1CCCN(CCO/N=C/c2ccccc2-c2ccco2)C1 (racemic)
51 | 33 | O=C(O)C1CCCN(CCO/N=C/c2ccccc2-n2cccc2)C1 (racemic)
52 | 37 | O=C(O)C1CCCN(CCO/N=C/c2ccccc2-n2cccn2)C1 (racemic)
53 | 29 | O=C(O)C1CCCN(CCO/N=C/c2ccccc2OCc2ccccc2)C1 (racemic)
54 | 37 | O=C(O)C1CCCN(CCO/N=C/c2ccccc2Oc2ccccc2)C1 (racemic)
55 | 60 | O=C(O)C1CCCN(CCO/N=C/c2ccccc2[N+](=O)[O-])C1 (racemic)
56 | 45 | O=C(O)C1CCCN(CCO/N=C/c2ccccn2)C1 (racemic)
57 | 48 | O=C(O)C1CCCN(CCO/N=C/c2cccnc2)C1 (racemic)
58 | 22 | O=C(O)C1CCCN(CCO/N=C/c2cccnc2-c2ccc(Cl)cc2)C1 (racemic)
59 | 31 | O=C(O)C1CCCN(CCO/N=C/c2cccnc2-c2ccc(Cl)cc2Cl)C1 (racemic)
60 | 32 | O=C(O)C1CCCN(CCO/N=C/c2cccnc2-c2cccc(Cl)c2)C1 (racemic)
61 | 22 | O=C(O)C1CCCN(CCO/N=C/c2cccnc2-c2cccc(F)c2)C1 (racemic)
62 | 22 | O=C(O)C1CCCN(CCO/N=C/c2cccnc2-c2ccccc2)C1 (racemic)
63 | 33 | O=C(O)C1CCCN(CCO/N=C/c2cccnc2-c2ccccc2Cl)C1 (racemic)
64 | 32 | O=C(O)C1CCCN(CCO/N=C/c2cccnc2-c2ccccc2F)C1 (racemic)
65 | 71 | O=C(O)C1CCCN(CCO/N=C/c2cccnc2Br)C1 (racemic)
66 | 62 | O=C(O)C1CCCN(CCO/N=C/c2ccnc3ccccc23)C1 (racemic)
67 | 60 | O=C(O)C1CCCN(CCO/N=C/c2ccncc2)C1 (racemic)
68 | 48 | O=C(O)C1CCCN(CCO/N=C/c2csc3ccccc23)C1 (racemic)
69 | 24 | O=C(O)C1CCCN(CCO/N=C/c2sccc2-c2ccc(F)cc2Cl)C1 (racemic)
70 | 48 | O=C(O)C1CCCN(CCO/N=C/c2sccc2-c2ccccc2)C1 (racemic)
71 | 60 | O=C(O)C1CCCN(CCO/N=C/c2sccc2-n2cccc2)C1 (racemic)

What follows are compounds tested against Sodium- and chloride-dependent GABA transporter 1 (Mus musculus) (UniProt P31648) (assay: Inhibition of mouse GAT-1 assessed as percentage of remaining specific binding of NO711 at 100 nM after 4 hrs by LC-ESI-MS/ms analysis relative to control).

Row | Activity | SMILES
72 | 16% | O=C(O)C1CCCN(CCO/N=C/c2cc(F)ccc2-c2ccccc2Cl)C1 (racemic)
73 | 17% | O=C(O)C1CCCN(CCO/N=C/c2ccccc2-c2c(F)cccc2F)C1 (racemic)
74 | 17% | O=C(O)C1CCCN(CCO/N=C/c2ccccc2-c2cc(F)ccc2F)C1 (racemic)
75 | 17% | O=C(O)C1CCCN(CCO/N=C/c2ccccc2-c2ccc(Cl)cc2F)C1 (racemic)
76 | Below limit of detection | O=C(O)C1CCCN(CCO/N=C/c2ccccc2-c2ccc3ccccc3c2)C1 (racemic)
77 | 17% | O=C(O)C1CCCN(CCO/N=C/c2ccccc2-c2cccc(F)c2F)C1 (racemic)
78 | 20% | O=C(O)C1CCCN(CCO/N=C/c2ccccc2-c2ccccc2)C1 (racemic)
79 | Below limit of detection | O=C(O)C1CCCN(CCO/N=C/c2cccnc2-c2ccc(Cl)cc2Cl)C1 (racemic)
80 | Below limit of detection | O=C(O)C1CCCN(CCO/N=C/c2sccc2-c2ccc(F)cc2Cl)C1 (racemic)
